In paper PMC6155021, “Ancient and modern anticonvulsants act synergistically in a KCNQ potassium channel binding pocket” (Nature Communications, 2018):

Tests used:
[1] = target: T1, KCNQ2/3 channels (Homo sapiens, UniProt O43525+O43526); experiment: Two-electrode voltage-clamp of KCNQ2/3 channels expressed in Xenopus laevis oocytes; assay type: cell-based; details: for Non-normalized tail current V0.5 / Normalized tail current V0.5 / Slope: KCNQ2/3; for effect on voltage dependence of KCNQ2/3 activation (initial screen): tail currents at −30 mV
Description: (§1) cRNA transcripts encoding human KCNA1, KCNQ1, KCNQ2, KCNQ3, KCNQ4, or KCNQ5 were generated by in vitro transcription using the T7 polymerase message machine kit (Thermo Fisher Scientific), after vector linearization, from cDNA sub-cloned into plasmids incorporating X. laevis β-globin 5′ and 3′ UTRs flanking the coding region to enhance translation and cRNA stability. cRNA was quantified by spectrophotometry. Mutant cDNAs were generated by site-directed mutagenesis using a QuikChange kit according to manufacturer’s protocol (Stratagene, San Diego, CA) and corresponding cRNAs prepared as above. Defolliculated stage V and VI X. laevis oocytes (Ecocyte Bioscience, Austin, TX) were injected with Kv channel α subunit cRNAs (10 ng total per oocyte). Oocytes were incubated at 16 °C in Barth’s saline solution (Ecocyte) containing penicillin and streptomycin, with daily washing, for 3–5 days prior to two-electrode voltage-clamp (TEVC) recording.
(§2) Oocytes were placed in a small-volume oocyte bath (Warner) and viewed with a dissection microscope. Chemicals were sourced from Sigma. Bath solution was (in mM): 96 NaCl, 4 KCl, 1 MgCl2, 1 CaCl2, 10 HEPES (pH 7.6). […] MTX (DMSO), sorbic acid (ethanol), and glutaconic acid (molecular grade H2O) were stored at −20 °C as 1 M stocks. Oleamide was stored as a 1 mM stock in ethanol at 4 °C. Palmitic acid was conjugated with bovine serum albumin as a 1 mM stock and stored at −20 °C. All compounds were diluted to working concentrations each experimental day. All compounds were introduced to the recording bath via gravity perfusion at a constant flow of 1 ml/min for 3 min prior to recording. Pipettes were of 1–2 MΩ resistance when filled with 3 M KCl. Currents were recorded in response to pulses between −80 and +40 mV at 20 mV intervals, or a single pulse to +40 mV, from a holding potential of −80 mV, to yield current–voltage relationships, current magnitude, and for quantifying activation rate. TEVC data analysis was performed with Clampfit10.2 (Molecular Devices) and Graphpad Prism software (GraphPad, San Diego, CA, USA); values are stated as mean ± SEM. Normalized tail currents were plotted versus prepulse voltage and fitted with a single Boltzmann function:1 g=A1-A2/1+expV12-Vy+A2, where g is the normalized tail conductance, A1 is the initial value at −∞, A2 is the final value at +∞, V1/2 is the half-maximal voltage of activation, and Vs the slope factor. Activation and deactivation kinetics were fitted with single-exponential functions.

[2] = target: KCNQ2-W236L/KCNQ3-W265L channels (Homo sapiens, UniProt O43525+O43526, W236L/W265L); experiment: Two-electrode voltage-clamp of W236L-Q2/W265L-Q3 mutant channels in Xenopus oocytes; assay type: cell-based; details: 100 µM
Description: as §1, §2

[3] = target: T1, KCNQ2/3 channels; details: previously found, cited from earlier work
[4] = test system: pentylene tetrazole-induced seizures; experiment: PTZ chemoconvulsant assay; assay type: in vivo, mouse; details: mice
Description: We compared anticonvulsant activities of test compounds in male C57BL/6 mice (Charles River) aged 2–3 months. Mice were housed and used according to the recommendations in the Guide for the Care and Use of Laboratory Animals of the National Institutes of Health (NIH Publication, 8th edition, 2011). The study protocol was approved by the Institutional Animal Care and Use Committee of University of California, Irvine, which confirmed that all relevant ethical regulations were adhered to. Chemicals were sourced from Sigma (St. Louis, MO, USA) . A pentylene tetrazole (PTZ) chemoconvulsant assay was used[54]. […] Following the PTZ injection, mice were caged individually and an observer (GWA) blinded to the drug used recorded, over 20 min, clonic and tonic seizure incidence, and seizure-related mortality.
All values are expressed as mean ± SEM. Chi-squared analysis was used to compare seizure-related mortality in mice. One-way ANOVA was applied for all other tests; if multiple comparisons were performed, a post-hoc Tukey’s HSD test was performed following ANOVA. All p-values were two-sided. Statistical significance was defined as p < 0.05.

[5] = target: KCNA1 (Homo sapiens, UniProt Q09470); experiment: Two-electrode voltage-clamp of KCNA1 in Xenopus oocytes; assay type: cell-based
Description: as §1
as §2, with “TEVC data analysis was performed with Clampfit10.2 (Molecular Devices) and Graphpad Prism software (GraphPad, San Diego, CA, USA); values are stated as mean ± SEM. Normalized tail currents were plotted versus prepulse voltage and fitted with a single Boltzmann function:1 g=A1-A2/1+expV12-Vy+A2, where g is the normalized tail conductance, A1 is the initial value at −∞, A2 is the final value at +∞, V1/2 is the half-maximal voltage of activation, and Vs the slope factor. Activation and deactivation kinetics were fitted with single-exponential functions.” left out

[6] = cited from earlier work
[7] = test system: KCNQ2–5; details: cited from earlier work
[8] = target: T2, KCNQ2 (Homo sapiens, UniProt O43526); set-up: method as in PMID 11466425; details: 10 µM RTG; cited from earlier work
[9] = target: KCNQ4 (Homo sapiens, UniProt P56696); experiment: cell-based; assay type: cell-based; details: KCNQ4; 1 µM
Description: as §1, §2

[10] = target: KCNQ3* (KCNQ3-A315T) (Homo sapiens, UniProt O43525, A315T); experiment: cell-based; assay type: cell-based; details: KCNQ3*; 1 µM
Description: as §1, §2

[11] = target: KCNQ5 (Homo sapiens, UniProt Q9NR82); experiment: cell-based; assay type: cell-based; details: KCNQ5; 1 µM
Description: as §1, §2

[12] = target: T2, KCNQ2; experiment: Two-electrode voltage-clamp of homomeric KCNQ2 in Xenopus oocytes; assay type: cell-based; details: KCNQ2; 1 µM
Description: as §1, §2

Sequence of KCNQ3* (KCNQ3-A315T) (O43525 whole entry A315T, looked up): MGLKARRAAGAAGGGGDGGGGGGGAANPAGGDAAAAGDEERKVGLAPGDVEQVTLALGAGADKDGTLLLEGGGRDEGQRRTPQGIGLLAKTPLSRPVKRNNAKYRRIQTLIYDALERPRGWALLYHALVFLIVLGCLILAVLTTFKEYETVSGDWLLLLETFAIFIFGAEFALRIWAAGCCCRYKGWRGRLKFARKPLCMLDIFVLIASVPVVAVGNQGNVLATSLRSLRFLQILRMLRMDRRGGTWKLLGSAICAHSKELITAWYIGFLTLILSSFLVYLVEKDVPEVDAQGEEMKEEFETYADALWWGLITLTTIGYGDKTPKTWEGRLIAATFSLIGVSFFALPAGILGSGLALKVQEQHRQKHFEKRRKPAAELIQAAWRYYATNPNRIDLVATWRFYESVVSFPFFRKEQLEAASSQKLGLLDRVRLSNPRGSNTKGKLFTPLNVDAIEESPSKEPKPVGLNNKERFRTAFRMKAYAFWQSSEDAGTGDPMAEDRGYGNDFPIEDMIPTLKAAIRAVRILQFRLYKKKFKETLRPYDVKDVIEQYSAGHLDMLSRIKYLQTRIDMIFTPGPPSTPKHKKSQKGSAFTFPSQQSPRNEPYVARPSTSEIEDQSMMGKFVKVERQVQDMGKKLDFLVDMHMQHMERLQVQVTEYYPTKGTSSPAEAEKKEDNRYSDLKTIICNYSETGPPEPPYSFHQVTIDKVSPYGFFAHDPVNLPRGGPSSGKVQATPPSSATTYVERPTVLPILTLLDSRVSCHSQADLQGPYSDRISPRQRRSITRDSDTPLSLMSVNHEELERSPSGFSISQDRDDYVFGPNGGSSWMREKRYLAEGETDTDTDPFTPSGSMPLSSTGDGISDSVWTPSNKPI
Sequence of KCNA1 (Q09470 whole entry): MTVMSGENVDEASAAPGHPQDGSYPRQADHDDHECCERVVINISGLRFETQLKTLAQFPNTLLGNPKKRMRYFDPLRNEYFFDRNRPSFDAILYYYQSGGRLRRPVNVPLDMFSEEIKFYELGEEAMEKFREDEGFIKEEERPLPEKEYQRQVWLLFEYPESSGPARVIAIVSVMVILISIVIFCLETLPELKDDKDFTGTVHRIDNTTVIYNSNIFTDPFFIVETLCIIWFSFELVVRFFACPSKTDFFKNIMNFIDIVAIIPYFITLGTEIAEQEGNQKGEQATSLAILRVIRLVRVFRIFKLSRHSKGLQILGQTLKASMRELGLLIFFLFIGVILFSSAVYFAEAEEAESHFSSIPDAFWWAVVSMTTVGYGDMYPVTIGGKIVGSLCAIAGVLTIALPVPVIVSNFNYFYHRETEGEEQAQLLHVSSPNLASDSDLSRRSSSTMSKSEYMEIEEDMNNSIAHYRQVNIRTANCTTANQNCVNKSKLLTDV

## C=CCCCCC [1-Heptene]
[1]; 100 µM
  Non-normalized tail current V0.5: -41.9 ± 4.9 mV
  Normalized tail current V0.5: -41.8 ± 0.9 mV
  Slope: 5.8 ± 1.5 mV

## Oc1ccccc1S [2-Mercaptophenol, 2-mercaptophenol]
[1]; 100 µM
  effect on voltage dependence of KCNQ2/3 activation (initial screen): positive-shifted
  Non-normalized tail current V0.5: -34.5 ± 4.6 mV
  Normalized tail current V0.5: -29.5 ± 2.5 mV
  Slope: 5.0 ± 1.2 mV
[1]; 2-mercaptophenol 100 µM with MTX 30 µM
  effect of 2-mercaptophenol on ability of MTX to activate KCNQ2/3: did not alter
[1]; 0.01 µM
  Non-normalized tail current V0.5: -37.2 ± 3.7 mV
  Normalized tail current V0.5: -37.7 ± 1.5 mV
  Slope: 7.4 ± 1.6 mV
[1]; 0.1 µM
  Non-normalized tail current V0.5: -40.9 ± 3.2 mV
  Normalized tail current V0.5: -43.4 ± 3.6 mV
  Slope: 5.4 ± 1.2 mV
[1]; 1 µM
  Non-normalized tail current V0.5: -43.2 ± 2.6 mV
  Normalized tail current V0.5: -43.6 ± 0.8 mV
  Slope: 6.4 ± 0.9 mV
[1]; 10 µM
  Non-normalized tail current V0.5: -43.2 ± 2.8 mV
  Normalized tail current V0.5: -43.7 ± 1.1 mV
  Slope: 7.4 ± 1.1 mV
[1]; 300 µM
  Non-normalized tail current V0.5: -22.5 ± 7.2 mV
  Normalized tail current V0.5: -19.8 ± 1.4 mV
  Slope: 8.3 ± 0.9 mV
[1]; activating at lower concentrations
  concentration at which KCNQ2/3 inhibition begins: ~ 100 µM
[2]
  sensitivity of KCNQ2-W236L/KCNQ3-W265L channels: insensitive
[2]; W236L-Q2/W265L-Q3
  Non-normalized tail current V0.5: -53.8 ± 1.7 mV
  Normalized tail current V0.5: -51.0 ± 4.2 mV

## CCC1=C(O)C(=O)CC1 [3-ethyl-2-hydroxy-2-cyclopenten-1-one]
[1]; 100 µM
  Non-normalized tail current V0.5: -40.1 ± 1.9 mV
  Normalized tail current V0.5: -41.0 ± 0.9 mV
  Slope: 5.1 ± 0.9 mV

## NCC(O)CC(=O)O (stereo not drawn) [GABOB, γ-amino-β-hydroxybutyric acid, reference compound]
[3]; high affinity partial agonist
  EC50: 120 nM
[1]; GABOB 100 µM with IVA 500 µM
  effect of GABOB on IVA effects on KCNQ2/3: highly effective at competing out effects of IVA
[1]; GABOB 100 µM with MTX 30 µM
  effect of GABOB on MTX effects on KCNQ2/3: only partially diminishes

## O=C(O)/C=C/CC(=O)O [Glutaconic Acid, glutaconic acid]
[1]; 100 µM
  effect on voltage dependence of KCNQ2/3 activation (initial screen): negative-shifted
  Non-normalized tail current V0.5: -40.8 ± 3.8 mV
  Normalized tail current V0.5: -40.7 ± 1.2 mV
  Slope: 5.4 ± 1.7 mV
[1]; 0.1 µM
  Non-normalized tail current V0.5: -40.4 ± 1.5 mV
  Normalized tail current V0.5: -41.2 ± 1.4 mV
  Slope: 4.4 ± 3.7 mV
[1]; 1 µM
  Non-normalized tail current V0.5: -41.5 ± 1.3 mV
  Normalized tail current V0.5: -42.7 ± 1.7 mV
  Slope: 4.8 ± 2.4 mV
[1]; 10 µM
  Non-normalized tail current V0.5: -42.1 ± 3.8 mV
  Normalized tail current V0.5: -42.9 ± 2.2 mV
  Slope: 5.4 ± 2.3 mV
[1]; 500 µM
  Non-normalized tail current V0.5: -38.5 ± 5.4 mV
  Normalized tail current V0.5: -37.7 ± 0.9 mV
  Slope: 6.8 ± 0.9 mV

## CC(C)CC(=O)O [IVA, isovaleric acid]
[4]; 10 mg/kg i.p. alone
  clonic seizure incidence: neither compound reduced clonic seizures alone
[4]; 20 mg/kg i.p., 30 min before 80 mg kg−1 PTZ
  clonic seizure incidence: no effect
[4]; individually
  suppression of PTZ-induced tonic seizures: ineffective
[5]; KCNA1 (table title), 500 µM
  Slope: 6.9 ± 1.1 mV
[5]; MTX concentration not given, IVA 500 µM
  effect on KCNA1 currents: did not alter currents

## CC(C)CC(N)=O [Isovaleramide, isovaleramide]
[6]
  passage through biological membranes: readily passes though biological membranes
[6]; humans
  mean Tmax: 0.5 to 0.75 h
  mean elimination half-life: 2.5 h
  well tolerated dose: at least 2400 mg per day

## CCCCCCCC/C=C\CCCCCCCC(N)=O [Oleamide, oleamide]
[1]; 0.1 µM
  Non-normalized tail current V0.5: -41.9 ± 4.8 mV
  Normalized tail current V0.5: -41.8 ± 0.6 mV
  Slope: 6.5 ± 0.9 mV
[1]; 1 µM
  Non-normalized tail current V0.5: -41.6 ± 4.3 mV
  Normalized tail current V0.5: -41.5 ± 0.8 mV
  Slope: 6.7 ± 1.1 mV
[1]; 10 µM
  Non-normalized tail current V0.5: -39.4 ± 4.8 mV
  Normalized tail current V0.5: -39.2 ± 0.8 mV
  Slope: 7.0 ± 0.8 mV
[1]; 100 µM
  Non-normalized tail current V0.5: -41.9 ± 3.5 mV
  Normalized tail current V0.5: -41.5 ± 0.8 mV
  Slope: 6.6 ± 0.8 mV
[1]; 500 µM
  Non-normalized tail current V0.5: -37.6 ± 2.1 mV
  Normalized tail current V0.5: -37.9 ± 0.8 mV
  Slope: 6.7 ± 0.6 mV

## CCCCCCCCCCCCCCCC(=O)O [Palmitic Acid, palmitic acid]
[1]; 30 µM
  effect on voltage dependence of KCNQ2/3 activation (initial screen): negative-shifted
  Non-normalized tail current V0.5: -43.5 ± 4.9 mV
  Normalized tail current V0.5: -44.3 ± 1.4 mV
  Slope: 7.0 ± 1.1 mV
[1]; 0.1 µM
  Non-normalized tail current V0.5: -43.6 ± 5.0 mV
  Normalized tail current V0.5: -44.3 ± 1.7 mV
  Slope: 7.9 ± 1.7 mV
[1]; 1 µM
  Non-normalized tail current V0.5: -45.6 ± 5.5 mV
  Normalized tail current V0.5: -46.6 ± 1.7 mV
  Slope: 7.4 ± 1.7 mV
[1]; 3 µM
  Non-normalized tail current V0.5: -45.1 ± 5.4 mV
  Normalized tail current V0.5: -46.5 ± 1.1 mV
  Slope: 7.1 ± 1.1 mV
[1]; 10 µM
  Non-normalized tail current V0.5: -43.1 ± 4.9 mV
  Normalized tail current V0.5: -44.9 ± 0.9 mV
  Slope: 6.8 ± 0.9 mV

## CCOC(=O)Nc1ccc(NCc2ccc(F)cc2)cc1N [Retigabine, retigabine, reference compound]
[7]
  order of potency across KCNQ isoforms: KCNQ3 > KCNQ2/3 > KCNQ2 > KCNQ4 > KCNQ5
[8]
  shift in midpoint voltage of activation: −24 mV
[9]
  Non-normalized tail current V0.5: -10.2 ± 7.5 mV
  Normalized tail current V0.5: -9.7 ± 1.1 mV
[10]
  Non-normalized tail current V0.5: -63.9 ± 7.7 mV
  Normalized tail current V0.5: -61.9 ± 2.2 mV
[11]
  Non-normalized tail current V0.5: -45.8 ± 2.8 mV
  Normalized tail current V0.5: -46.0 ± 0.9 mV
[1]; 1 µM alone
  effects on KCNQ2/3: negligible effects
[1]; 1 µM
  Non-normalized tail current V0.5: -41.7 ± 2.3 mV
  Normalized tail current V0.5: -41.9 ± 0.7 mV
[1]; 10 µM
  Non-normalized tail current V0.5: -61.8 ± 4.8 mV
  Normalized tail current V0.5: -61.4 ± 1.1 mV
  Slope: 6.7 ± 1.1 mV
[1]; RTG 10 µM
  shift of KCNQ2/3 activation V0.5: −13 mV
[12]
  Non-normalized tail current V0.5: -51.6 ± 6.6 mV
  Normalized tail current V0.5: -51.7 ± 0.7 mV

## C/C=C/C=C/C(=O)O [Sorbic Acid, sorbic acid]
[1]; 100 µM
  Non-normalized tail current V0.5: -39.9 ± 3.0 mV
  Normalized tail current V0.5: -39.9 ± 0.9 mV
  Slope: 4.2 ± 0.9 mV

## O=C1c2ccccc2C(Cc2ccncc2)(Cc2ccncc2)c2ccccc21 [XE991, reference compound]
[1]; wash-in of MTX followed by XE991, −60 mV
  effect on MTX-activated KCNQ2/3 current: rapidly inhibited

## CCCCC(=O)O [valeric acid]
[3]
  ability to activate KCNQ2/3 channels: inactive
